Molecular target: T1, human TREK-1 (Homo sapiens, UniProt O95069)
T1 construct: expressed in transfected cells
T1 sequence (O95069 1-426): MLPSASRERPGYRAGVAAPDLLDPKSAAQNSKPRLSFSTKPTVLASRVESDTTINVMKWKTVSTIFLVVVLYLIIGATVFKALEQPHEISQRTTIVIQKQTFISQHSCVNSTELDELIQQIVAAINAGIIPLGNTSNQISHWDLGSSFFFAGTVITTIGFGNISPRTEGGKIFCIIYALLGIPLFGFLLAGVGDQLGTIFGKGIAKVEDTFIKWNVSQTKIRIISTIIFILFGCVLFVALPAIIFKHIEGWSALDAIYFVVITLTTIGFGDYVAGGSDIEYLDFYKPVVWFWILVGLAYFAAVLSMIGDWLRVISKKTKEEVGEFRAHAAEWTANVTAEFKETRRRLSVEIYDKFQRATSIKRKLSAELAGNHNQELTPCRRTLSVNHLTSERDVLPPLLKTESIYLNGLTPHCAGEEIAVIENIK
Assay: TREK-1 Thallium (Tl+) flux assay, Method 1
Assay type: cell-based
Conditions: TREK-1 Thallium (Tl+) flux assay; no *^12 (Method 2) mark on these rows
Method in brief: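 CHO-K1 cells stably expressing human TREK-1, loaded with Thallos dye, received compound or 0.3% DMSO vehicle for 10 min before thallium stimulus buffer. ΔRatio is fluorescence at 25 s after thallium addition over mean pre-addition fluorescence; % inhibition calculated from it.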

An IC50 of 0.34 µM was found for `O=C(Nc1ncc(C#Cc2ccccc2)cc1F)c1c(Cl)cnn1CC1CCOC1` (centres unmarked) [Compound 217, 4-chloro-N-(3-fluoro-5-(phenylethynyl)pyridin-2-yl)-1-((tetrahydrofuran-3-yl)methyl)-1H-pyrazole-5-carboxamide] in this work.

An IC50 of 0.34 µM was found for `CO[C@@H](C)Cn1ncc(Cl)c1C(=O)Nc1ncc(C#Cc2ccccc2)cc1C` [Compound 218, (S)-4-chloro-1-(2-methoxypropyl)-N-(3-methyl-5-(phenylethynyl)pyridin-2-yl)-1H-pyrazole-5-carboxamide] in this work.

An IC50 of 0.34 µM was found for `Cc1cc(C#Cc2ccccc2)cc(F)c1NC(=O)c1c(Cl)cnn1C[C@H]1CCOC1` [Compound 219, (R)-4-chloro-N-(2-fluoro-6-methyl-4-(phenylethynyl)phenyl)-1-((tetrahydrofuran-3-yl)methyl)-1H-pyrazole-5-carboxamide] in this work.

An IC50 of 0.34 µM was found for `Cc1cc(C#Cc2ccccc2)cnc1NC(=O)c1c(Cl)cnn1C1CCN(C(=O)C(C)(C)C)CC1` [Compound 220, 4-chloro-N-(3-methyl-5-(phenylethynyl)pyridin-2-yl)-1-(1-pivaloylpiperidin-4-yl)-1H-pyrazole-5-carboxamide] in this work.

An IC50 of 0.34 µM was found for `CC(C)(C)OC(=O)N[C@@H]1CC[C@@H](n2ncc(Cl)c2C(=O)Nc2ncc(C#Cc3ccccc3)cc2F)C1` [Compound 221, tert-butyl ((1R,3R)-3-(4-chloro-5-((3-fluoro-5-(phenylethynyl)pyridin-2-yl)carbamoyl)-1H-pyrazol-1-yl)cyclopentyl)carbamate] in this work.

An IC50 of 0.34 µM was found for `Cc1cc(C#Cc2ccccc2)cnc1NC(=O)c1c(Cl)cnn1C[C@@H]1CCN(C(=O)C(C)C)C[C@H]1F` [Compound 222, 4-chloro-1-(((3S,4S)-3-fluoro-1-isobutyrylpiperidin-4-yl)methyl)-N-(3-methyl-5-(phenylethynyl)pyridin-2-yl)-1H-pyrazole-5-carboxamide] in this work.

An IC50 of 0.34 µM was found for `Cc1cc(C#Cc2ccc(F)cc2)cnc1NC(=O)c1c(Cl)cnn1CC1CCCN(C(=O)C2COCCO2)C1` (centres unmarked) [Compound 223, 1-((1-(1,4-dioxane-2-carbonyl)piperidin-3-yl)methyl)-4-chloro-N-(5-((4-fluorophenyl)ethynyl)-3-methylpyridin-2-yl)-1H-pyrazole-5-carboxamide] in this work.

An IC50 of 0.75 µM was found for `Cc1cc(C#Cc2ccccc2)cnc1NC(=O)c1c(Cl)cnn1[C@@H]1CCOC1` [Compound 224, (R)-4-chloro-N-(3-methyl-5-(phenylethynyl)pyridin-2-yl)-1-(tetrahydrofuran-3-yl)-1H-pyrazole-5-carboxamide] in this work.

An IC50 of 0.35 µM was found for `CC(C)(C)OC(=O)N1CCCC(n2ncc(Cl)c2C(=O)Nc2ncc(C#Cc3ccccc3)cc2F)CC1` (centres unmarked) [Compound 225, tert-butyl 4-(4-chloro-5-((3-fluoro-5-(phenylethynyl)pyridin-2-yl)carbamoyl)-1H-pyrazol-1-yl)azepane-1-carboxylate] in this work.

An IC50 of 0.35 µM was found for `Cc1cc(C#Cc2ccccc2F)cnc1NC(=O)c1c(Cl)cnn1CCC1CCN(C(=O)C2CC2)CC1` [Compound 226, 4-chloro-1-(2-(1-(cyclopropanecarbonyl)piperidin-4-yl)ethyl)-N-(5-((2-fluorophenyl)ethynyl)-3-methylpyridin-2-yl)-1H-pyrazole-5-carboxamide] in this work.

An IC50 of 0.35 µM was found for `O=C(Nc1ncc(C#Cc2ccccc2)cc1F)c1c(Cl)cnn1-c1ccc2c(c1)OCO2` [Compound 227, 1-(benzo[d][1,3]dioxol-5-yl)-4-chloro-N-(3-fluoro-5-(phenylethynyl)pyridin-2-yl)-1H-pyrazole-5-carboxamide] in this work.

An IC50 of 0.35 µM was found for `CC(=O)N1CCC(F)(Cn2ncc(Cl)c2C(=O)Nc2ncc(C#Cc3ccccc3)cc2F)CC1` [Compound 228, 1-((1-acetyl-4-fluoropiperidin-4-yl)methyl)-4-chloro-N-(3-fluoro-5-(phenylethynyl)pyridin-2-yl)-1H-pyrazole-5-carboxamide] in this work.

An IC50 of 0.35 µM was found for `Cc1cc(C#Cc2ccc(F)cc2)cnc1NC(=O)c1c(Cl)cnn1C1CCN(C(=O)C2CC2)C1` (centres unmarked) [Compound 229, 4-chloro-1-(1-(cyclopropanecarbonyl)pyrrolidin-3-yl)-N-(5-((4-fluorophenyl)ethynyl)-3-methylpyridin-2-yl)-1H-pyrazole-5-carboxamide] in this work.

An IC50 of 0.35 µM was found for `Cc1cc(C#Cc2ccc(F)cc2)cnc1NC(=O)c1c(Cl)cnn1C1CCN(C(=O)C2COCCO2)C1` (centres unmarked) [Compound 230, 1-(1-(1,4-dioxane-2-carbonyl)pyrrolidin-3-yl)-4-chloro-N-(5-((4-fluorophenyl)ethynyl)-3-methylpyridin-2-yl)-1H-pyrazole-5-carboxamide] in this work.

An IC50 of 0.35 µM was found for `Cc1cc(C#Cc2ccccc2)cnc1NC(=O)c1c(Cl)cnn1CC1CCN(C(=O)C(C)C)CC1(F)F` (centres unmarked) [Compound 231, 4-chloro-1-((3,3-difluoro-1-isobutyrylpiperidin-4-yl)methyl)-N-(3-methyl-5-(phenylethynyl)pyridin-2-yl)-1H-pyrazole-5-carboxamide] in this work.

An IC50 of 0.36 µM was found for `Cc1cc(C#Cc2ccccc2)cnc1NC(=O)c1c(Cl)cnn1CC1CCOC1` (centres unmarked) [Compound 232, 4-chloro-N-(3-methyl-5-(phenylethynyl)pyridin-2-yl)-1-((tetrahydrofuran-3-yl)methyl)-1H-pyrazole-5-carboxamide] in this work.

An IC50 of 0.36 µM was found for `O=C(Nc1ncc(C#Cc2ccc(F)cc2)cc1F)c1c(Cl)cnn1CC1CCOCC1` [Compound 233, 4-chloro-N-(3-fluoro-5-((4-fluorophenyl)ethynyl)pyridin-2-yl)-1-((tetrahydro-2H-pyran-4-yl)methyl)-1H-pyrazole-5-carboxamide] in this work.

An IC50 of 0.36 µM was found for `CC(C)(C#N)Cn1ncc(Cl)c1C(=O)Nc1ncc(C#Cc2ccccc2)cc1F` [Compound 234, 4-chloro-1-(2-cyano-2-methylpropyl)-N-(3-fluoro-5-(phenylethynyl)pyridin-2-yl)-1H-pyrazole-5-carboxamide] in this work.

An IC50 of 0.36 µM was found for `O=C(Nc1ncc(C#Cc2ccc(F)cc2)cc1F)c1c(Cl)cnn1[C@@H]1CCN(C(=O)C2COCCO2)C[C@H]1F` (stereo partly drawn) [Compound 235, 1-((3R,4R)-1-(1,4-dioxane-2-carbonyl)-3-fluoropiperidin-4-yl)-4-chloro-N-(3-fluoro-5-((4-fluorophenyl)ethynyl)pyridin-2-yl)-1H-pyrazole-5-carboxamide] in this work.

An IC50 of 0.36 µM was found for `Cc1cc(C#Cc2ccccc2)cnc1NC(=O)c1c(Cl)cnn1CC1(F)CCN(C(=O)C(C)C)CC1` [Compound 236, 4-chloro-1-((4-fluoro-1-isobutyrylpiperidin-4-yl)methyl)-N-(3-methyl-5-(phenylethynyl)pyridin-2-yl)-1H-pyrazole-5-carboxamide] in this work.

An IC50 of 0.37 µM was found for `CC(C)(C)OC(=O)N1CCC(n2ncc(Cl)c2C(=O)Nc2ncc(C#Cc3ccccc3)cc2F)C1` (centres unmarked) [Compound 237, tert-butyl 3-(4-chloro-5-((3-fluoro-5-(phenylethynyl)pyridin-2-yl)carbamoyl)-1H-pyrazol-1-yl)pyrrolidine-1-carboxylate] in this work.

An IC50 of 0.37 µM was found for `CC(=O)N1CCC(n2ncc(Cl)c2C(=O)Nc2ncc(C#Cc3ccccc3)cc2C)C1` (centres unmarked) [Compound 238, 1-(1-acetylpyrrolidin-3-yl)-4-chloro-N-(3-methyl-5-(phenylethynyl)pyridin-2-yl)-1H-pyrazole-5-carboxamide] in this work.

An IC50 of 0.37 µM was found for `Cc1cc(C#Cc2ccccc2)cnc1NC(=O)c1c(Cl)cnn1C(C)CNC(=O)OC(C)(C)C` (centres unmarked) [Compound 239, tert-butyl (2-(4-chloro-5-((3-methyl-5-(phenylethynyl)pyridin-2-yl)carbamoyl)-1H-pyrazol-1-yl)propyl)carbamate] in this work.

An IC50 of 0.37 µM was found for `CC(C)(C)OC(=O)N1CC[C@@H](Cn2ncc(Cl)c2C(=O)Nc2ncc(C#Cc3ccccc3)cc2F)[C@H](F)C1` [Compound 240, tert-butyl (3S,4S)-4-((4-chloro-5-((3-fluoro-5-(phenylethynyl)pyridin-2-yl)carbamoyl)-1H-pyrazol-1-yl)methyl)-3-fluoropiperidine-1-carboxylate] in this work.

An IC50 of 0.37 µM was found for `Cc1cc(C#Cc2ccccc2)cnc1NC(=O)c1c(Cl)cnn1C[C@@H]1CCN(C(=O)OC(C)(C)C)C[C@H]1F` [Compound 241, tert-butyl (3S,4S)-4-((4-chloro-5-((3-methyl-5-(phenylethynyl)pyridin-2-yl)carbamoyl)-1H-pyrazol-1-yl)methyl)-3-fluoropiperidine-1-carboxylate] in this work.

An IC50 of 0.38 µM was found for `Cc1cc(C#Cc2ccccc2)cnc1NC(=O)c1c(Cl)cnn1CC1(C#N)CCCC1` [Compound 242, 4-chloro-1-((1-cyanocyclopentyl)methyl)-N-(3-methyl-5-(phenylethynyl)pyridin-2-yl)-1H-pyrazole-5-carboxamide] in this work.

An IC50 of 0.38 µM was found for `CC(C)(C)OC(=O)N1CC(n2ncc(Cl)c2C(=O)Nc2ncc(C#Cc3ccccc3)cc2F)C1` [Compound 243, tert-butyl 3-(4-chloro-5-((3-fluoro-5-(phenylethynyl)pyridin-2-yl)carbamoyl)-1H-pyrazol-1-yl)azetidine-1-carboxylate] in this work.

An IC50 of 0.38 µM was found for `CC(=O)N1CCC(Cn2ncc(Cl)c2C(=O)Nc2ncc(C#Cc3ccc(F)cc3)cc2C)C(C)C1` (centres unmarked) [Compound 244, 1-((1-acetyl-3-methylpiperidin-4-yl)methyl)-4-chloro-N-(5-((4-fluorophenyl)ethynyl)-3-methylpyridin-2-yl)-1H-pyrazole-5-carboxamide] in this work.

An IC50 of 0.39 µM was found for `N#CC1CC(n2ncc(Cl)c2C(=O)Nc2c(F)cc(C#Cc3ccccc3)cc2F)C1` (centres unmarked) [Compound 245, 4-chloro-1-(3-cyanocyclobutyl)-N-(2,6-difluoro-4-(phenylethynyl)phenyl)-1H-pyrazole-5-carboxamide] in this work.

From patent publication US20240182445A1 (ONO PHARMACEUTICAL CO., LTD., priority 2019, published 2024)
